Results published in patent publication US20100331305A1, “OXO-HETEROCYCLE FUSED PYRIMIDINE COMPOUNDS, COMPOSITIONS AND METHODS OF USE” (Genentech, Inc., priority 2009, published 2010).

Assays:
[1] = tested on: PC3 cells; assay: In vitro cell proliferation assay; format: cell-based, human; conditions: Homo sapiens, PC-3, with PC3 cells; values tied to compounds by order of Table 1
Description: c. In Vitro Cell Proliferation Assay Efficacy of Formula I compounds were measured by a cell proliferation assay employing the following protocol: 1. An aliquot of 20 μl of cell culture containing about 10^3 cells (PC3 or MDAMB361.1) in medium was deposited in each well of a 384-well, opaque-walled plate. 2. Control wells were prepared containing medium and without cells; Cells were allowed to settle overnight. 3. The compound was added to the experimental wells and incubated for 3 days. 4. The plates were equilibrated to room temperature for approximately 30 minutes. 5. A volume of CellTiter-Glo Reagent equal to the volume of cell culture medium present in each well was added. […] The contents were mixed for 2 minutes on an orbital shaker to induce cell lysis. 7. The plate was incubated at room temperature for 20 minutes to stabilize the luminescence signal. 8. Luminescence was recorded and reported in graphs as RLU=relative luminescence units. Alternatively, cells were seeded at optimal density in a 96 well plate and incubated for 4 days in the presence of test compound. Alamar BlueTM was subsequently added to the assay medium, and cells were incubated for 6 h before reading at 544 nm excitation, 590 nm emission. EC50 values were calculated using a sigmoidal dose response curve fit.

[2] = biological target: mTOR enzyme (mTOR(1360-2549)+GBL) (Homo sapiens, UniProt P42345); assay: In vitro mTOR kinase assay (TR-FRET); format: biochemical; conditions: 0.25 nM mTOR+GBL, 8 uM ATP; values tied to compounds by order of Table 1; 'x or y' = two alternative values for separated diastereomers of unassigned stereochemistry; read-out: activity level (Ki) in the mTOR kinase assay
Excerpt: a. In Vitro mTOR Kinase Assay
The reaction is stopped by an addition of a Terbium-labeled phospho-specific antibody, e.g., Tb-labeled anti-p4E-BP1 T37/T46, (Invitrogen, product #PR8835A), EDTA, and TR-FRET buffer solution (Invitrogen, Product #PR3756B). Product formation is detected by way of time-resolved fluorescence resonance energy transfer (TR-FRET), which occurs when the phosphorylated substrate and labeled antibody are in close proximity due to phospho-specific binding. Enzymatic activity is measured as an increase in TR-FRET signal using a Perkin Elmer Envision plate reader.
Compound activity is tested in 10 point dose curves starting at the highest final concentration of 10 uM. They are serially diluted in 100% DMSO prior to further dilution with assay buffer. […] 8 μL of solution containing 2 nM Tb-anti-p4E-BP1 antibody & 10 mM EDTA diluted TR-FRET buffer is then added and incubated for 30 minutes to stop the reaction. The plate is scanned with the Envision plate reader. Ki values are calculated in Assay Explorer using the Morrison ATP-competitive tight binding equation for Ki apparent determination.

Chain of mTOR enzyme (mTOR(1360-2549)+GBL) (P42345 1360-2549, species assumed): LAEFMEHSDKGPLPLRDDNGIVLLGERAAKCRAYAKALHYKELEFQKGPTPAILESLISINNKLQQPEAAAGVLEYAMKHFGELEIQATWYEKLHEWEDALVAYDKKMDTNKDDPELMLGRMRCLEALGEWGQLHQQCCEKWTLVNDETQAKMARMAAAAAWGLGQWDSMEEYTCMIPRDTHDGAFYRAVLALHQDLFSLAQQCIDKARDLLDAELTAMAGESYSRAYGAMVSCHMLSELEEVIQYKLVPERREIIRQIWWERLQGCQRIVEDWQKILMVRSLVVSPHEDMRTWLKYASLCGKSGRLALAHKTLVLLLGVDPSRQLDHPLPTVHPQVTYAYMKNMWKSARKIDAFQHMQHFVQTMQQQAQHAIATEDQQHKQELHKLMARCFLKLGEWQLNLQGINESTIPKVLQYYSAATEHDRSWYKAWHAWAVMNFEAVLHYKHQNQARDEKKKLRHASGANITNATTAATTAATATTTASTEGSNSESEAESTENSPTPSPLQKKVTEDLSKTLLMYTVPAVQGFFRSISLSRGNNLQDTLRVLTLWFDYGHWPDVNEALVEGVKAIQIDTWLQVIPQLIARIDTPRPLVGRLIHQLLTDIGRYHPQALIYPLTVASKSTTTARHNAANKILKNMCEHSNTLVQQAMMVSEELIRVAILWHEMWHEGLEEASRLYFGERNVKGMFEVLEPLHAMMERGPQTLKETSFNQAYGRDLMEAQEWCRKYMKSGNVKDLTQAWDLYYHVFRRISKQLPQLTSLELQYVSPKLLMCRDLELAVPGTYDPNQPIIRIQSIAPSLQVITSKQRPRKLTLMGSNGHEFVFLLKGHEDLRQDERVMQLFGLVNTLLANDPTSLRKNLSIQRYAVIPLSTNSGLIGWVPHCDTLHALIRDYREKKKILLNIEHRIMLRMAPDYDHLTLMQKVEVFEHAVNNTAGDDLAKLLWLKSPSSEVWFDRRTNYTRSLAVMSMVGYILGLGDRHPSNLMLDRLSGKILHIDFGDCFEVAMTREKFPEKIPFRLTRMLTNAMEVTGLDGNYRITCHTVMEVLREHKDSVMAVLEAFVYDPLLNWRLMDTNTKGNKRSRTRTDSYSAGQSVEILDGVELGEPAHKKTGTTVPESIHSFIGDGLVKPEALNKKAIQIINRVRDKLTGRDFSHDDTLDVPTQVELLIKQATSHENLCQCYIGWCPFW
Chain of mTOR enzyme (mTOR(1360-2549)+GBL) (Q9BVC4 whole entry partner, species assumed): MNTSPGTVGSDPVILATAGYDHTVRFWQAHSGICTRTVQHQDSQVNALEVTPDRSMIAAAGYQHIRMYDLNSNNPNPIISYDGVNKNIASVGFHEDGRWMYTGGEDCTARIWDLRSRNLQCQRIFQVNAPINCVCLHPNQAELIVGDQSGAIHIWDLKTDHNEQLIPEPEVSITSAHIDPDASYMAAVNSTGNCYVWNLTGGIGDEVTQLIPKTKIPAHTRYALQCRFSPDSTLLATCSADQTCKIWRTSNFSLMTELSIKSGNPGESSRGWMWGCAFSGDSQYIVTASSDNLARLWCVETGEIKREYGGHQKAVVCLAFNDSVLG

| Compound | EC50 [1] [nM] | Ki [2] [nM] |
| --- | --- | --- |
| CC[C@H]1COCCN1c1nc(-c2ccc(Nc3cccc(=O)[nH]3)cc2)nc2c1COCC2 [Example 5, (S)-6-(4-(4-(3-ethylmorpholino)-7,8-dihydro-5H-pyrano[4,3-d]pyrimidin-2-yl)phenylamino)pyridin-2(1H)-one] | 297 | 2 |
| CCNC(=O)Nc1ccc(-c2nc3c(c(N4CCOC[C@@H]4C)n2)CCOC3)cc1 [Example 13 al, (S)-1-ethyl-3-(4-(4-(3-methylmorpholino)-6,8-dihydro-5H-pyrano[3,4-d]pyrimidin-2-yl)phenyl)urea] | 194 | 2 |
| CCNC(=O)Nc1ccc(-c2nc3c(c(N4CCOCC4)n2)CCC2(CC2)O3)cc1 [Example 14, 1-ethyl-3-(4-(4′-morpholino-5′,6′-dihydrospiro[cyclopropane-1,7′-pyrano[2,3-d]pyrimidine]-2′-yl)phenyl)urea] | 84 | 3 |
| C[C@H]1COCCN1c1nc(-c2ccc(NC(=O)NCCO)cc2)nc2c1COCC2 [Example 24, (S)-1-(2-hydroxyethyl)-3-(4-(4-(3-methylmorpholino)-7,8-dihydro-5H-pyrano[4,3-d]pyrimidin-2-yl)phenyl)urea] | 541 | 3 |
| C[C@H]1COCCN1c1nc(-c2ccc(NC(=O)NC3COC3)cc2)nc2c1COCC2 [Example 25, (S)-1-(4-(4-(3-methylmorpholino)-7,8-dihydro-5H-pyrano[4,3-d]pyrimidin-2-yl)phenyl)-3-(oxetan-3-yl)urea] | 1500 | 13 |
| C[C@H]1COCCN1c1nc(-c2ccc(NC(=O)NC3CCC3)cc2)nc2c1COCC2 [Example 26, (S)-1-cyclobutyl-3-(4-(4-(3-methylmorpholino)-7,8-dihydro-5H-pyrano[4,3-d]pyrimidin-2-yl)phenyl)urea] | 1600 | 14 |
| Cc1nnc(NC(=O)Nc2ccc(-c3nc4c(c(N5CCOC[C@@H]5C)n3)COCC4)cc2)o1 [Example 27, (S)-1-(5-methyl-1,3,4-oxadiazol-2-yl)-3-(4-(4-(3-methylmorpholino)-7,8-dihydro-5H-pyrano[4,3-d]pyrimidin-2-yl)phenyl)urea] | 313 | 26 |
| C[C@H]1COCCN1c1nc(-c2ccc(Nc3nccc(=O)[nH]3)cc2)nc2c1COCC2 [Example 28, (S)-2-(4-(4-(3-methylmorpholino)-7,8-dihydro-5H-pyrano[4,3-d]pyrimidin-2-yl)phenylamino)pyrimidin-4(3H)-one] | 194 | 2 |
| C[C@H]1COCCN1c1nc(-c2ccc(Nc3cccc(=O)[nH]3)cc2)nc2c1COCC2 [Example 29, (S)-6-(4-(4-(3-methylmorpholino)-7,8-dihydro-5H-pyrano[4,3-d]pyrimidin-2-yl)phenylamino)pyridin-2(1H)-one] | 341 | 5 |
| C[C@H]1COCCN1c1nc(-c2ccc(NC(=O)Nc3ccn(C)n3)cc2)nc2c1CCCO2 [Example 30, (S)-1-(1-methyl-1H-pyrazol-3-yl)-3-(4-(4-(3-methylmorpholino)-6,7-dihydro-5H-pyrano[2,3-d]pyrimidin-2-yl)phenyl)urea] | 172 | 1 |
| C[C@H]1COCCN1c1nc(-c2ccc(NC(=O)Nc3cnn(C)c3)cc2)nc2c1CCCO2 [Example 31, (S)-1-(1-methyl-1H-pyrazol-4-yl)-3-(4-(4-(3-methylmorpholino)-6,7-dihydro-5H-pyrano[2,3-d]pyrimidin-2-yl)phenyl)urea] | 57 | 2 |
| C[C@H]1COCCN1c1nc(-c2ccc(NC(=O)NC3COC3)cc2)nc2c1CCCO2 [Example 32, (S)-1-(4-(4-(3-methylmorpholino)-6,7-dihydro-5H-pyrano[2,3-d]pyrimidin-2-yl)phenyl)-3-(oxetan-3-yl)urea] | 325 | 4 |
| C[C@H]1COCCN1c1nc(-c2ccc(NC(=O)NCCO)cc2)nc2c1CCCO2 [Example 33, (S)-1-(2-hydroxyethyl)-3-(4-(4-(3-methylmorpholino)-6,7-dihydro-5H-pyrano[2,3-d]pyrimidin-2-yl)phenyl)urea] | 111 | 1 |
| C[C@H]1COCCN1c1nc(-c2ccc(Nc3nccc(=O)[nH]3)cc2)nc2c1CCCO2 [Example 34, (S)-2-(4-(4-(3-methylmorpholino)-6,7-dihydro-5H-pyrano[2,3-d]pyrimidin-2-yl)phenylamino)pyrimidin-4(3H)-one] | 45 | 1 |
| C[C@H]1COCCN1c1nc(-c2ccc(Nc3cccc(=O)[nH]3)cc2)nc2c1CCCO2 [Example 35, (S)-6-(4-(4-(3-methylmorpholino)-6,7-dihydro-5H-pyrano[2,3-d]pyrimidin-2-yl)phenylamino)pyridin-2(1H)-one] | 236 | 2 |
| O=c1ccnc(Nc2ccc(-c3nc4c(c(N5CCOCC5)n3)CCC3(CC3)O4)cc2)[nH]1 [Example 42, 2-(4-(4′-morpholino-5′,6′-dihydrospiro[cyclopropane-1,7′-pyrano[2,3-d]pyrimidine]-2′-yl)phenylamino)pyrimidin-4(3H)-one] | 56 | 1 |
| O=C(Nc1ccc(-c2nc3c(c(N4CCOCC4)n2)CCC2(CC2)O3)cc1)NC1COC1 [Example 43, 1-(4-(4′-morpholino-5′,6′-dihydrospiro[cyclopropane-1,7′-pyrano[2,3-d]pyrimidine]-2′-yl)phenyl)-3-(oxetan-3-yl)urea] | 392 | 6 |
| Cn1ccc(NC(=O)Nc2ccc(-c3nc4c(c(N5CCOCC5)n3)CCC3(CC3)O4)cc2)n1 [Example 44, 1-(1-methyl-1H-pyrazol-3-yl)-3-(4-(4′-morpholino-5′,6′-dihydrospiro[cyclopropane-1,7′-pyrano[2,3-d]pyrimidine]-2′-yl)phenyl)urea] | 329 | 2 |
| Cn1cc(NC(=O)Nc2ccc(-c3nc4c(c(N5CCOCC5)n3)CCC3(CC3)O4)cc2)cn1 [Example 45, 1-(1-methyl-1H-pyrazol-4-yl)-3-(4-(4′-morpholino-5′,6′-dihydrospiro[cyclopropane-1,7′-pyrano[2,3-d]pyrimidine]-2′-yl)phenyl)urea] | 102 | 2 |
| CCNC(=O)Nc1ccc(-c2nc3c(c(N4CCOC[C@@H]4C)n2)CCC2(CC2)O3)cc1 [Example 49, (S)-1-ethyl-3-(4-(4′-(3-methylmorpholino)-5′,6′-dihydrospiro[cyclopropane-1,7′-pyrano[2,3-d]pyrimidine]-2′-yl)phenyl)urea] | 67 | 0.3 |
| C[C@H]1COCCN1c1nc(-c2ccc(NC(=O)Nc3cnn(C)c3)cc2)nc2c1CCC1(CC1)O2 [Example 50, (S)-1-(1-methyl-1H-pyrazol-4-yl)-3-(4-(4′-(3-methylmorpholino)-5′,6′-dihydrospiro[cyclopropane-1,7′-pyrano[2,3-d]pyrimidine]-2′-yl)phenyl)urea] | 29 | 1 |
| C[C@H]1COCCN1c1nc(-c2ccc(NC(=O)NC3COC3)cc2)nc2c1CCC1(CC1)O2 [Example 51, (S)-1-(4-(4′-(3-methylmorpholino)-5′,6′-dihydrospiro[cyclopropane-1,7′-pyrano[2,3-d]pyrimidine]-2′-yl)phenyl)-3-(oxetan-3-yl)urea] | 77 | 1 |
| C[C@H]1COCCN1c1nc(-c2ccc(NC(=O)Nc3ccn(C)n3)cc2)nc2c1CCC1(CC1)O2 [Example 52, (S)-1-(1-methyl-1H-pyrazol-3-yl)-3-(4-(4′-(3-methylmorpholino)-5′,6′-dihydrospiro[cyclopropane-1,7′-pyrano[2,3-d]pyrimidine]-2′-yl)phenyl)urea] | 172 | 1 |
| Cc1coc(NC(=O)Nc2ccc(-c3nc4c(c(N5CCOC[C@@H]5C)n3)CCC3(CC3)O4)cc2)n1 [Example 53, (S)-1-(4-(4′-(3-methylmorpholino)-5′,6′-dihydrospiro[cyclopropane-1,7′-pyrano[2,3-d]pyrimidine]-2′-yl)phenyl)-3-(4-methyloxazol-2-yl)urea] | 233 | 1 |
| C[C@H]1COCCN1c1nc(-c2ccc(Nc3cccc(=O)[nH]3)cc2)nc2c1CCC1(CC1)O2 [Example 54, (S)-6-(4-(4′-(3-methylmorpholino)-5′,6′-dihydrospiro[cyclopropane-1,7′-pyrano[2,3-d]pyrimidine]-2′-yl)phenylamino)pyridin-2(1H)-one] | 40 | 1 |
